The text below walks through data of ChEMBL document CHEMBL1126524, “Derivatives of quinuclidine as 5-HT3 receptor antagonists: influence of an additional carbonyl group on the recognition of chirality by the receptor” (Bioorg Med Chem Lett, 1993).

The target in assay [1] is T1, Serotonin 3 (5-HT3) receptor (Rattus norvegicus, UniProt P35563+Q9JJ16).
T1 sequence (P35563 whole entry): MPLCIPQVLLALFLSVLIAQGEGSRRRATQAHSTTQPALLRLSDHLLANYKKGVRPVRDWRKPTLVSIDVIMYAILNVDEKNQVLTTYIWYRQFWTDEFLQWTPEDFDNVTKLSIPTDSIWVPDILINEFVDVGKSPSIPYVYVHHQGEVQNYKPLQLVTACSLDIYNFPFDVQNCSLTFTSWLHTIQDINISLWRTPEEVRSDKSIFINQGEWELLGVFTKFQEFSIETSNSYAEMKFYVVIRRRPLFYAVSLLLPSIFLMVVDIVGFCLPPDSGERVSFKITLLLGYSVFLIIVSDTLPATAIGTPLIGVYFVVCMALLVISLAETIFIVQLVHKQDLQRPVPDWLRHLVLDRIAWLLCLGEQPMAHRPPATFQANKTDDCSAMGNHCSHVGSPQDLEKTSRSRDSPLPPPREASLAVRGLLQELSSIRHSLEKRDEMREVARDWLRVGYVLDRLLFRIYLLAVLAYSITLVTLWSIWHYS
T1 sequence (Q9JJ16 whole entry): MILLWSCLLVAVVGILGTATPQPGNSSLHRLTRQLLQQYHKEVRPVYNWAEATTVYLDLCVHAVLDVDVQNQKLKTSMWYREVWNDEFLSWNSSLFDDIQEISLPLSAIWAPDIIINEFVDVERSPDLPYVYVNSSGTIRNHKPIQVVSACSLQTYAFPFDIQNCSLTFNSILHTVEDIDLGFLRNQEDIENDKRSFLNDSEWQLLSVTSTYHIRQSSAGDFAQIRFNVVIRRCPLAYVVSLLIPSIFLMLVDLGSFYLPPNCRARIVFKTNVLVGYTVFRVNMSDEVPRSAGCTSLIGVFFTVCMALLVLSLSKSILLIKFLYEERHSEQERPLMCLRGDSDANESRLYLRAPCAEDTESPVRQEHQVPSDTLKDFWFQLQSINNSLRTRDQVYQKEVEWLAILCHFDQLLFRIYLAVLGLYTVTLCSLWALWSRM
Briefly: Binding affinity at 5-hydroxytryptamine 3 receptor in rat entorhinal cortex by [3H]BRL-43694 displacement. The format is tissue-based.

In assay [2] the target is Serotonin 3 (5-HT3) receptor (Rattus norvegicus) (UniProt P35563+Q9JJ16). The assay can be described thus: Compound was tested as a 5-hydroxytryptamine 3 receptor antagonist in the rat by assessment of the inhibition of the Bezold-Jarisch effect, when administered intravenously. In kind it is functional.

One may read the Ki as a dissociation constant, usually derived from enzyme kinetics or from competition with a known ligand. High values mean weaker binding, low ones tighter binding. As for `O=C(N[C@H]1CN2CCC1CC2)c1ccccc1`, the Ki in assay [1] was 1890 nM. For the molecule `CCOc1ccccc1C(=O)N[C@@H]1CN2CCC1CC2`, in assay [1], the Ki worked out at 18.9 nM. The same measure, in the same setting: with `Nc1ccc2cccc3c2c1C(=O)N(C1CN2CCC1CC2)C3=O` (centres undefined) the figure was 0.15 nM; with `O=C1c2ccc3ccccc3c2C(=O)N1[C@@H]1CN2CCC1CC2`, 119 nM.

`COc1ccccc1C(=O)N[C@H]1CN2CCC1CC2` yielded a Ki in assay [1] of 409 nM.

In assay [2], `O=C1c2ccc3ccccc3c2C(=O)N1[C@H]1CN2CCC1CC2` gave an ID50 of 18.6 mg/kg. Besides, the inhibition constant (Ki) in assay [1] turned out to be 6 nM. Regarding `CCOc1ccccc1C(=O)N[C@H]1CN2CCC1CC2`, the Ki in assay [1] was determined as 100 nM. Still for that read-out and setting: with `O=C(N[C@@H]1CN2CCC1CC2)c1cccc2ccccc12` the figure was 32 nM; with `CCCOc1ccccc1C(=O)N[C@@H]1CN2CCC1CC2`, 11.2 nM. On to `COc1ccc2ccccc2c1C(=O)NC1CN2CCC1CC2` (centres undefined), for which the inhibition constant (Ki) in assay [1] was 342 nM.

In assay [1], `CCCOc1ccccc1C(=O)N[C@H]1CN2CCC1CC2` gave an inhibitory constant (Ki) of 71.6 nM. Molecule `O=C(N[C@@H]1CN2CCC1CC2)c1ccccc1` registered a Ki in assay [1] of 147 nM.

For the molecule `COc1ccccc1C(=O)N[C@@H]1CN2CCC1CC2`, the Ki in assay [1] came to 23.4 nM.
